Test results taken from US20220381772A1, “SYSTEMS AND METHODS FOR EVALUATING NK CELLS” (The Regents of The University of California, priority 2019, published 2022).
Entries after “also recorded” stand apart in the source; their conditions may differ.

Columns and labels:
Assay type in all cases: cell-based, human
MP2 tumors [1] = assay: Paclitaxel-induced cell death, propidium iodide staining; conditions: for cell death: poorly differentiated MP2, 18-20 hours
Protocol: (§1) P-values of <0.05 were obtained for differences between MP2 vs. PL12 and Capan at the concentrations of 10 nM, 200 nM, 600 nM, 1000 nM and […] of Paclitaxel (n=2 per each experimental condition).
(§2) The viability of cells was determined by staining with propidium iodide (n=3/each experimental condition).

Capan tumors = assay: as above
Protocol: as §1

PL12 tumors = assay: as above; conditions: for cell death: well-differentiated PL12, compared with MP2, 18-20 hours
Protocol: as §1

[2] = test system: NK-supernatant differentiated MP2 tumors; assay: as above; conditions: for cell death: MP2 differentiated with NK-supernatants 5 days, paclitaxel 10 nM to 600 nM, 18-24 h
Protocol: as §2

MP2 tumors [3] = assay: Surface expression of CD44, CD54, MHC-class I and B7H1, flow cytometry; conditions: rhIFN-γ 200 U/mL, 24 h
Protocol: (§3) Freshly isolated NK cells were left untreated or treated with IL-2 (1000 U/mL) or the combination of anti-CD16 mAb (3 μg/mL) and IL-2 (1000 U/mL) for 18 h before they were used in co-cultures with ^51Cr labeled MP2, and PL12. NK cell-mediated cytotoxicity was determined using 4-hour ^51Cr release assay, and the lytic units 30/10^6 cells were determined using inverse number of NK cells required to lyse 30% of the target cells×100 (n=5 independent experiments). (FIG. 25A). Cells were left untreated or treated with rhTNF-α (20 ng/mL), rhIFN-γ (200 U/mL) or the combination of rhTNF-α (20 ng/mL) and […] (200 U/mL) for 24 h. Afterwards, the cells were detached and the surface expression of CD44, CD54, MHC-class I and B7H1 were assessed using staining with PE conjugated antibodies followed by flow cytometric analysis. Isotype control antibodies were used as controls (FIG. 25B) MP2 and Capan cells were treated as described in FIG. 25A, and were detached from the tissue culture plates, labeled with ^51Cr and used in a standard 4-hour ^51Cr release assay using IL-2 (1000 U/mL) treated NK cells. Pre-treatment of NK cells with IL-2 (1000 U/mL) were carried out for 18-24 h. Percent cytotoxicity was determined at different effector to target ratio and the lytic units 30/10^6 cells were determined using inverse number of NK cells required to lyse 30% of the tumor cells×100 (FIG. 25C).

OSCCs = assay: Chemo-drug induced cell death, propidium iodide staining and flow cytometry; conditions: patient-derived differentiated OSCCs
Protocol: (§4) OSCCs or OSCSCs were seeded at 1×10^5 cells/well in 24-well plate for 24 h prior to the addition of highly purified NK cells pre-treated with IL-2 (1000 units/ml) for 24 h. NK cells were added to tumor cells at 2:1 effector to target ratio. At time 0 when NK cells were added to the tumor culture, a final concentration of 10 μg/ml of propidium iodide (PI) was also added. The cells were then subsequently tracked for over 72 h using time-lapse microscopy with Nikon Eclipse Ti-E inverted microscope fitted with a culture chamber to provide cells with a stable temperature of 37° C. with 5% CO2. An image was taken every 15 min and a representation is shown at day 1, day 1½, and day 3. OSCSCs but not OSCCs which are lysed take up PI and appear orange in the time-lapse (A). NK cells were left untreated or treated with IL-2 (1000 units/ml), anti-CD16 mAb (3 μg/ml), or a combination of IL-2 (1000 units/ml) and anti-CD16 mAb (3 μg/ml) for 18 h before they were added to ^51Cr-labeled OSCSCs and OSCCs. NK cell-mediated cytotoxicity was determined using a standard 4 h ^51Cr release assay and the lytic units 30/10^6 cells were determined using inverse number of NK cells required to lyse 30% of the target cells×100 (B). NK cells were treated as described in (B) and each NK sample was either cultured in the absence or presence of OSCSCs and OSCCs at an NK cell to target cell ratio of 0.5:1. After an overnight incubation, the supernatants were removed from the co-cultures and the levels of IFN-γ secretion were determined using specific ELISAs. One of minimum three representative experiments is shown in each of (C). The surface expression of MHC class I and CD44 on OSCCs and OSCSCs were assessed with flow cytometric analysis after staining with the respective PE-conjugated antibodies. Isotype control antibodies were used as control. The numbers on the right hand corner are the percentages and the mean channel fluorescence intensities for each histogram (D). The surface expression of CD338 on OSCCs and OSCSCs was assessed by flow cytometric analysis after staining with PE-conjugated CD338 (right graphs in the histogram). Isotype control antibodies were used as control (left graphs in the histograms) (E). OSCCs and OSCSCs were left untreated or treated with 10-80 μg/ml of cisplatin for 18 h, after which the tumor cells were washed with 1×PBS, detached, and stained with propidium iodide (PI) and percent cell death was determined using flow cytometric analysis (F).

OSCSCs = assay: as above
Protocol: as §4

MP2 = assay: Resistance to NK cell mediated cytotoxicity after cytokine treatment, 4-hour 51Cr release assay; conditions: rhTNF-α 20 ng/mL or rhIFN-γ 200 U/mL; IL-2 treated NK cells
Protocol: as §3

[4] = stem-like/poorly differentiated OSCSCs, cisplatin 10-80 μg/ml for 18 h in FIG. 1F

CC(=O)N[C@@H](CS)C(=O)O [NAC, N-Acetyl Cysteine]
paclitaxel mediated cell death on addition of NAC (MP2 tumors [1]; NAC (20 nM) 24 h, followed by paclitaxel): increased paclitaxel mediated cell death
paclitaxel mediated cell death on addition of NAC (Capan tumors; NAC then paclitaxel): increased paclitaxel mediated cell death
paclitaxel mediated cell death on addition of NAC (PL12 tumors; NAC then paclitaxel): increased paclitaxel mediated cell death
paclitaxel mediated cell death on addition of NAC ([2]; NAC (20 nM) 24 h, followed by paclitaxel 10 nM to 600 nM): increased cell death; also recorded: increased paclitaxel mediated death

rhIFN-γ: recombinant human IFN-γ from Biolegend
surface expression of B7H1 (MP2 tumors [3]): able to upregulate B7H1
surface expression of CD44, CD54, MHC-class I and B7H1 (MP2 tumors [3]; rhTNF-α 20 ng/mL): increase surface expression of CD54 and MHC-class I

CC(=O)O[C@H]1C(=O)[C@@]2(C)[C@H]([C@H](OC(=O)c3ccccc3)[C@]3(O)C[C@H](OC(=O)[C@H](O)[C@@H](NC(=O)c4ccccc4)c4ccccc4)C(C)=C1C3(C)C)[C@]1(OC(C)=O)CO[C@@H]1C[C@@H]2O [paclitaxel]
cell death (OSCCs): higher cell death
cell death (OSCSCs; NK-differentiated OSCSCs): higher cell death
cell death (OSCSCs; [4]): minimal effects
cell death (MP2 tumors [1]): resistant
cell death (Capan tumors; well-differentiated Capan, compared with MP2, 18-20 hours): much higher levels of cell death; also recorded: higher induction of cell death
cell death (PL12 tumors): much higher levels of cell death; also recorded: higher induction of cell death; also recorded: killed
cell death [2]: higher induction of cell death; also recorded: killed

N.N.[Cl][Pt][Cl] [CDDP, cis-dichlorodiammineplatinum]
cell death (OSCCs): higher cell death
cell death (OSCSCs; NK-differentiated OSCSCs): higher cell death
cell death (OSCSCs; [4]): not susceptible to CDDP induced cell death; also recorded: minimal effects
cell death (MP2 tumors [1]): resistant
cell death (PL12 tumors): killed
cell death [2]: killed

B1: rhIFN-γ: recombinant human IFN-γ from Biolegend (protein, UniProt P01579 24-161, looked up)
Interferon gamma: QDPYVKEAENLKKYFNAGHSDVADNGTLFLGILKNWKEESDRKIMQSQIVSFYFKLFKNFKDDQSIQKSVETIKEDMNVKFFNSNKKKRDDFEKLTNYSVTDLNVQRKAIHELIQVMAELSPAAKTGKRKRSQMLFRG
resistance against NK cell mediated cytotoxicity (MP2): significant resistance
